Assay results as given in patent US10881720B2, “Nanoparticles for immune stimulation” (THE BOARD OF REGENTS OF THE UNIVERSITY OF TEXAS SYSTEM, priority 2014, dated 2021).

Key:
splenic B cells = assay: In vitro CFSE-dilution proliferation of B220+ B cells in splenocyte culture; type: cell-based, WT C57BL/6 mice; settings: over the doses tested (10 pg/ml, 10 ng/ml), three days
Experimental: (§1) Even activation of both iNKT and B cells by the weak agonist, soluble βGlcCer was enhanced by encapsulation of this glycolipid in nanoparticles (βGC-NanoP). Nanoparticles lacking glycolipids were not stimulatory for either iNKT or B cells in this assay (data not shown). Nanoparticles were assessed by Mass Spectrometry and Scanning Electron Microscopy for lipid content and particle size. In the study, spleen cells were isolated, then labeled with carboxyfluorescein diacetate succinimidyl ester (CFSE) and cultured for 3 days with soluble αGalCer, soluble βGlcCer, αGC-NanoPs, or βGC-NanoPs at concentrations of glycolipid noted. […] FIG. 2B is a graph showing a summary of the data in FIG. 2A. […] FIGS. 2C and 2D show the percentage of B220+ cells that dilute CFSE after 3 days of in vitro culture with soluble αGalCer and αGC-NanoP (FIG. 2C), or soluble βGlcCer and βGC-NanoP (FIG. 2D). Results shown are representative of 2 experiments, duplicate wells. *=p≤0.05 as compared to soluble glycolipid.
Total spleen cells from WT C57BL/6 mice were removed, a single cell suspension was created, and red blood cells were lysed. […] After three days of culture, cells were removed from the wells, labeled with fluorescently tagged lineage specific markers (anti-B220 for B cells and anti-TcRβ plus CD1d-tetramer for iNKT cells) and assessed for cell type specific CFSE dilution by FACS analysis. […]

iNKT cells = assay: In vitro CFSE-dilution proliferation of iNKT cells in splenocyte culture; type: cell-based, WT C57BL/6 mice; settings: for percent of iNKT cells proliferated (CFSE dilution): three days of culture
Experimental: as §1
Total spleen cells from WT C57BL/6 mice were removed, a single cell suspension was created, and red blood cells were lysed. Splenocytes were labeled with carboxyfluorescein succinimidyl ester (CFSE) using standard procedures and then cultured at 2×10^6 cells/well in a 96 well flat bottom tissue culture plate. At the initiation of this culture, cells were coincubated with 10 pg/ml or 10 ng/ml of αGalCer, βGlcCer, αGC-NanoP, βGC-NanoP, or left in media only. After three days of culture, cells were removed from the wells, labeled with fluorescently tagged lineage specific markers (anti-B220 for B cells and anti-TcRβ plus CD1d-tetramer for iNKT cells) and assessed for cell type specific CFSE dilution by FACS analysis. […] In comparison, 39% of iNKT cells proliferated in response to αGC-NanoP at the 10 ng/ml dose and 35% responded vigorously to the 10 pg/ml dose.

Compound	B cell proliferation (CFSE dilution) (splenic B cells)	percent of iNKT cells proliferated (CFSE dilution) (iNKT cells; 10 pg/ml glycolipid)	percent of iNKT cells proliferated (CFSE dilution) (iNKT cells; 10 ng/ml glycolipid) [%]	stimulation of iNKT cells (iNKT cells; either dose tested (10 pg/ml, 10 ng/ml), three days)
CCCCCCCCCCCCCCCCCCCCCCCCCC(=O)N[C@@H](CO[C@H]1O[C@H](CO)[C@H](O)[C@H](O)[C@H]1O)[C@H](O)[C@H](O)CCCCCCCCCCCCCC [αGalCer, αGalactosylceramide]	only to the higher doses	not responsive	44	–
βGlucosylceramide [βGlcCer]	not to the doses tested	–	–	neither βGlcCer alone nor βGC-NanoP were stimulatory
